Measured values published in US10889554B2, “Excimer forming compounds” (THE GOVERNING COUNCIL OF THE UNIVERSITY OF TORONTO, priority 2013, dated 2021).

Tested on: fixed cells
Experiment: Fixed cell imaging: monitoring decrease in proximal phosphorylation
Type: cell-based
Details: 22 nM, pre-treatment prior to cell fixation
Procedure: (3 h prior to fixation, media was removed and 22 nM of Staurosporine (BioShop, cat. STA001) solution in fresh media was added and incubated at 37° C., 5% CO2 for 3 h).

With `CN[C@@H]1C[C@H]2O[C@@](C)([C@@H]1OC)n1c3ccccc3c3c4c(c5c6ccccc6n2c5c31)C(=O)NC4` [staurosporine] the “fluorescence intensity of compound 1-Zn^2+ complex compared to untreated control” value was “time-dependent decrease”.
